How the values were obtained:
HLA-B*08:01 = HLA-B*08:01 (Homo sapiens, UniProt P01889); assay: MHC binding assay (UV-ligand exchange, beta2m ELISA); settings: MHC class I binding score; binding to HLA-B*08:01 ranged by peptide exchange yield (UV-ligand exchange, β2m ELISA)
Summary of the method: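 Peptide–HLA complexes generated by UV-ligand exchange of a UV-cleavable peptide for the test peptide; exchange yield read by β2m ELISA on streptavidin capture (samples diluted 100-fold, 1 h 37 °C), HRP anti-β2m, TMB, A450. Quantified against refolded HLA-A*02:01/MLA-001 monomer standards (15-500 ng/ml).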

[1] = test system: CD8+ T cells of healthy HLA-B*08 donors; assay: In vitro T-cell priming assay with aAPCs loaded with peptide/MHC complexes and anti-CD28 antibody, pMHC multimer readout; assay type: cell-based, human; settings: in vitro immunogenicity
Text: In order to obtain information regarding the immunogenicity of the TUMAPs of the present invention, the inventors performed investigations using an in vitro T-cell priming assay based on repeated stimulations of CD8+ T cells with artificial antigen presenting cells (aAPCs) loaded with peptide/MHC complexes and anti-CD28 antibody.
In order to perform in vitro stimulations by artificial antigen presenting cells loaded with peptide-MHC complex (pMHC) and anti-CD28 antibody, the inventors first isolated CD8+ T cells from fresh HLA-B*08 leukapheresis products via positive selection using CD8 microbeads (Miltenyi Biotec, Bergisch-Gladbach, Germany) of healthy donors obtained from the University clinics Mannheim, Germany, after informed consent.
PBMCs and isolated CD8+ lymphocytes were incubated in T-cell medium (TCM) until use consisting of RPMI-Glutamax (Invitrogen, Karlsruhe, Germany) supplemented with 10% heat inactivated human AB serum (PAN-Biotech, Aidenbach, Germany), 100 U/ml Penicillin/100 μg/ml Streptomycin (Cambrex, Cologne, Germany), 1 mM sodium pyruvate (CC Pro, Oberdorla, Germany), 20 μg/ml Gentamycin (Cambrex). 2.5 ng/ml IL-7 (PromoCell, Heidelberg, Germany) and 10 U/ml IL-2 (Novartis Pharma, Nornberg, Germany) were also added to the TCM at this step.
Generation of pMHC/anti-CD28 coated beads, T-cell stimulations and readout was performed in a highly defined in vitro system using four different pMHC molecules per stimulation condition and 8 different pMHC molecules per readout condition.
The purified co-stimulatory mouse IgG2a anti human CD28 Ab 9.3 (Jung et al., 1987) was chemically biotinylated using Sulfo-N-hydroxysuccinimidobiotin as recommended by the manufacturer (Perbio, Bonn, Germany). Beads used were 5.6 μm diameter streptavidin coated polystyrene particles (Bangs Laboratories, Illinois, USA).
800.000 beads/200 μl were coated in 96-well plates in the presence of 4×12.5 ng different biotin-pMHC, washed and 600 ng biotin anti-CD28 were added subsequently in a volume of 200 μl. Stimulations were initiated in 96-well plates by co-incubating 1×10^6 CD8+ T cells with 2×10^5 washed coated beads in 200 μl TCM supplemented with 5 ng/ml IL-12 (PromoCell) for 3 days at 37° C. Half of the medium was then exchanged by fresh TCM supplemented with 80 U/ml IL-2 and incubating was continued for 4 days at 37° C. This stimulation cycle was performed for a total of three times. For the pMHC multimer readout using 8 different pMHC molecules per condition, a two-dimensional combinatorial coding approach was used as previously described (Andersen et al., 2012) with minor modifications encompassing coupling to 5 different fluorochromes. Finally, multimeric analyses were performed by staining the cells with Live/dead near IR dye (Invitrogen, Karlsruhe, Germany), CD8-FITC antibody clone SK1 (BD, Heidelberg, Germany) and fluorescent pMHC multimers. For analysis, a BD LSRII SORP cytometer equipped with appropriate lasers and filters was used. Peptide specific cells were calculated as percentage of total CD8+ cells. Evaluation of multimeric analysis was done using the FlowJo software (Tree Star, Oregon, USA). In vitro priming of specific multimer+CD8+ lymphocytes was detected by comparing to negative control stimulations.

[2] = HLA class I peptides, Table 10B

| Substance | Peptide exchange (HLA-B*08:01) | Wells positive [%] [1, 2] | Wells positive [%] ([1]; Table 10A, HLA-B*08 pMHC, healthy donors) |
| --- | --- | --- | --- |
| 1 (ALKLKVAEL; listed as Homo sapiens) [compound 1] | ++ (20% = ++) | ++ (20%-49% = ++) | – |
| 3 (SIQSRYISM; listed as Homo sapiens) [compound 3] | +++ (50% = +++) | ++ (20%-49% = ++) | – |
| 5 (STMPKILAL; listed as Homo sapiens) [compound 5] | +++ (50% = +++) | + (<20% = +) | – |
| 8 (FVRPKLVTI; listed as Homo sapiens) [compound 8] | +++ (50% = +++) | + (<20% = +) | – |
| 9 (LLKGKPRAL; listed as Homo sapiens) [compound 9] | ++ (20% = ++) | + (<20% = +) | – |
| 10 (MGKFKQCF; listed as Homo sapiens) [compound 10] | +++ (50% = +++) | ++++ (>=70% = ++++) | – |
| 11 (MAPLKMLAL; listed as Homo sapiens) [compound 11] | +++ (50% = +++) | +++ (50%-69%= +++) | – |
| 13 (EPFTRPVL; listed as Homo sapiens) [compound 13] | ++ (20% = ++) | + (<20% = +) | – |
| 18 (LSLVRKAL; listed as Homo sapiens) [compound 18] | +++ (50% = +++) | ++ (20%-49% = ++) | – |
| 19 (FTLLRRLSL; listed as Homo sapiens) [compound 19] | +++ (50% = +++) | ++++ (>=70% = ++++) | – |
| 20 (ILKRFLAC; listed as Homo sapiens) [compound 20] | +++ (50% = +++) | + (<20% = +) | – |
| 21 (RILKRFLAC; listed as Homo sapiens) [compound 21] | +++ (50% = +++) | + (<20% = +) | – |
| 22 (EVRLKPIL; listed as Homo sapiens) [compound 22] | ++ (20% = ++) | + (<20% = +) | – |
| 25 (HLHPKGREL; listed as Homo sapiens) [compound 25] | ++ (20% = ++) | ++ (20%-49% = ++) | – |
| 29 (ELFLHPVL; listed as Homo sapiens) [compound 29] | ++ (20% = ++) | ++ (20%-49% = ++) | – |
| 31 (SPRVKWTF; listed as Homo sapiens) [compound 31] | ++ (20% = ++) | ++++ (>=70% = ++++) | – |
| 33 (WIGLRNLDL; listed as Homo sapiens) [compound 33] | +++ (50% = +++) | + (<20% = +) | – |
| 34 (IYRKKYIL; listed as Homo sapiens) [compound 34] | ++ (20% = ++) | + (<20% = +) | – |
| 35 (ELFQRPVL; listed as Homo sapiens) [compound 35] | ++ (20% = ++) | + (<20% = +) | – |
| 36 (IVKIKVQEL; listed as Homo sapiens) [compound 36] | ++ (20% = ++) | ++ (20%-49% = ++) | – |
| 37 (EAFSRASL; listed as Homo sapiens) [compound 37] | ++ (20% = ++) | ++ (20%-49% = ++) | – |
| 286 (ILLPRTVSL; listed as Homo sapiens) [compound 286] | – | – | + (<20% = +) |

More lines, main results first:

| Peptide exchange (HLA-B*08:01) | Substance | Wells positive [%] [1, 2] | Wells positive [%] ([1]; Table 10A, HLA-B*08 pMHC, healthy donors) |
| --- | --- | --- | --- |
| +++ (50% = +++) | 38 (EVYQKIIL; listed as Homo sapiens) [compound 38] | ++++ (>=70% = ++++) | – |
| ++ (20% = ++) | 40 (ESMLKTTL; listed as Homo sapiens) [compound 40] | + (<20% = +) | – |
| ++ (20% = ++) | 41 (RGALRTLSL; listed as Homo sapiens) [compound 41] | + (<20% = +) | – |
| ++ (20% = ++) | 42 (VLRRKTLL; listed as Homo sapiens) [compound 42] | + (<20% = +) | – |
| +++ (50% = +++) | 45 (RLKVALSTL; listed as Homo sapiens) [compound 45] | + (<20% = +) | – |
| ++ (20% = ++) | 47 (HSRVKLAQL; listed as Homo sapiens) [compound 47] | ++ (20%-49% = ++) | – |
| ++ (20% = ++) | 48 (ELALRQTV; listed as Homo sapiens) [compound 48] | + (<20% = +) | – |
| +++ (50% = +++) | 49 (FLRVFTDSL; listed as Homo sapiens) [compound 49] | + (<20% = +) | – |
| ++ (20% = ++) | 57 (MPLKHYLL; listed as Homo sapiens) [compound 57] | +++ (50%-69%= +++) | – |
| ++ (20% = ++) | 58 (LPKKMKLL; listed as Homo sapiens) [compound 58] | ++ (20%-49% = ++) | – |
| +++ (50% = +++) | 60 (MLHIKKAEV; listed as Homo sapiens) [compound 60] | + (<20% = +) | – |
| ++ (20% = ++) | 62 (FMLAKEASL; listed as Homo sapiens) [compound 62] | + (<20% = +) | – |
| ++ (20% = ++) | 63 (YVKRKTNVL; listed as Homo sapiens) [compound 63] | + (<20% = +) | – |
| ++ (20% = ++) | 66 (DLKKTRVL; listed as Homo sapiens) [compound 66] | + (<20% = +) | – |
| +++ (50% = +++) | 68 (DLKIPRYPV; listed as Homo sapiens) [compound 68] | +++ (50%-69%= +++) | – |
| +++ (50% = +++) | 71 (HIRIKHTF; listed as Homo sapiens) [compound 71] | ++ (20%-49% = ++) | – |
| +++ (50% = +++) | 74 (RLKLRYEGL; listed as Homo sapiens) [compound 74] | ++ (20%-49% = ++) | – |
| +++ (50% = +++) | 75 (YARLKNVLL; listed as Homo sapiens) [compound 75] | +++ (50%-69%= +++) | – |
| +++ (50% = +++) | 76 (HPRLKVNLL; listed as Homo sapiens) [compound 76] | + (<20% = +) | – |
| ++ (20% = ++) | 78 (DGHMKVFSL; listed as Homo sapiens) [compound 78] | ++ (20%-49% = ++) | – |
| +++ (50% = +++) | 80 (EVYLRMYQL; listed as Homo sapiens) [compound 80] | +++ (50%-69%= +++) | – |
| ++ (20% = ++) | 82 (SIRKRPML; listed as Homo sapiens) [compound 82] | + (<20% = +) | – |
| +++ (50% = +++) | 83 (FVLLRSVDL; listed as Homo sapiens) [compound 83] | +++ (50%-69%= +++) | – |
| ++ (20% = ++) | 86 (RPIHHPLVL; listed as Homo sapiens) [compound 86] | + (<20% = +) | – |
| +++ (50% = +++) | 89 (VPYTKVQL; listed as Homo sapiens) [compound 89] | + (<20% = +) | – |

Reference: patent US11433099B2, “Immunotherapy with B*08 restricted peptides and combination of peptides against cancers and related methods” (Immatics Biotechnologies GmbH, priority 2018, dated 2022)
